Test results as given in ChEMBL document CHEMBL3217715, “Are pyridazines privileged structures?” (Medchemcomm, 2011).

Molecular target: D(2) dopamine receptor (Homo sapiens, UniProt P14416)
Assay: Antagonist activity at dopamine D2 receptor (unknown origin)

Sequence of D(2) dopamine receptor (P14416 whole entry): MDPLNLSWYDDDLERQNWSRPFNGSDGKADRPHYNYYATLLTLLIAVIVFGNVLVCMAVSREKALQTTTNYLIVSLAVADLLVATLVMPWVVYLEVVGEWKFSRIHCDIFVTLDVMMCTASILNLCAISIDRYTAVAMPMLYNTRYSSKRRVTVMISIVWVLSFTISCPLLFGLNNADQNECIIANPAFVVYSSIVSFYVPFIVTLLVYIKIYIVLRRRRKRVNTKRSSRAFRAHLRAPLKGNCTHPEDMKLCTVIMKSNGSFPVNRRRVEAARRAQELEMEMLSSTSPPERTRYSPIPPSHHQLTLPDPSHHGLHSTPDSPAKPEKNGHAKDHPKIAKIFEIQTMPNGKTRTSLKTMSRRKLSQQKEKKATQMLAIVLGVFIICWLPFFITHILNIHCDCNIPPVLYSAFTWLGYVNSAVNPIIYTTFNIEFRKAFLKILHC

Ki: 3.9 nM
SMILES: CCN1CCCC1CNc1nncc2ccc(OC)c(OC)c12 (stereo unspecified)
